For 5 compounds, % of control and % of engagement results are on record in ChEMBL document CHEMBL5465560, “Selectivity Literature for EUbOPEN Chemogenomic Library” (2024).

Experiment [1] deals with T1, MAP/microtubule affinity-regulating kinase 4 (Homo sapiens) (UniProt Q96L34).
T1 sequence (whole entry): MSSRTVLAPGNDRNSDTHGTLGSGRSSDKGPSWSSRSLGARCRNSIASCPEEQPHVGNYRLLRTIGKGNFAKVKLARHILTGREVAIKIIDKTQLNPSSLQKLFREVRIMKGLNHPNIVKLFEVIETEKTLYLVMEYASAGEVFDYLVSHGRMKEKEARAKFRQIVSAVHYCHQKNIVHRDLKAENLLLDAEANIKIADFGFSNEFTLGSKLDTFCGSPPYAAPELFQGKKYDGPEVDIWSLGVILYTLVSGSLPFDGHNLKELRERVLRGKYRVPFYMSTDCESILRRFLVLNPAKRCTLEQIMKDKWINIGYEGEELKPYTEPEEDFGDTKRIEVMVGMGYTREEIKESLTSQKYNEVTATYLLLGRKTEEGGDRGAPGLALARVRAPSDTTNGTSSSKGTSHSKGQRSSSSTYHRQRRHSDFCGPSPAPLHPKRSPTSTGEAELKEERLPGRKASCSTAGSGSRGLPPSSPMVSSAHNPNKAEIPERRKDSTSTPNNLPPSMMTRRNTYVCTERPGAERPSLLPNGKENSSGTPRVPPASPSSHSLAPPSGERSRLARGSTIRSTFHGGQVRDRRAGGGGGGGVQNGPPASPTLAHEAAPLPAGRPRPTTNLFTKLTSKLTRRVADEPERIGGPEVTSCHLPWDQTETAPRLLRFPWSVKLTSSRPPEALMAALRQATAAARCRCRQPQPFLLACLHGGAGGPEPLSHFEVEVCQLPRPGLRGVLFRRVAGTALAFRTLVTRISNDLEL
As to the kind of experiment: Selectivity interaction (KinomeScan (DiscoverX)) EUB0000607a MARK4. Particulars: at 10 µM.

Experiment [2] concerns the target Death-associated protein kinase 2 (Homo sapiens) (UniProt Q9UIK4). The experiment is described as follows: Selectivity interaction (ProQinase) EUB0000171b DAPK2.
The target in experiment [3] is T2, Mitogen-activated protein kinase kinase kinase kinase 2 (Homo sapiens) (UniProt Q12851).
T2 sequence (whole entry): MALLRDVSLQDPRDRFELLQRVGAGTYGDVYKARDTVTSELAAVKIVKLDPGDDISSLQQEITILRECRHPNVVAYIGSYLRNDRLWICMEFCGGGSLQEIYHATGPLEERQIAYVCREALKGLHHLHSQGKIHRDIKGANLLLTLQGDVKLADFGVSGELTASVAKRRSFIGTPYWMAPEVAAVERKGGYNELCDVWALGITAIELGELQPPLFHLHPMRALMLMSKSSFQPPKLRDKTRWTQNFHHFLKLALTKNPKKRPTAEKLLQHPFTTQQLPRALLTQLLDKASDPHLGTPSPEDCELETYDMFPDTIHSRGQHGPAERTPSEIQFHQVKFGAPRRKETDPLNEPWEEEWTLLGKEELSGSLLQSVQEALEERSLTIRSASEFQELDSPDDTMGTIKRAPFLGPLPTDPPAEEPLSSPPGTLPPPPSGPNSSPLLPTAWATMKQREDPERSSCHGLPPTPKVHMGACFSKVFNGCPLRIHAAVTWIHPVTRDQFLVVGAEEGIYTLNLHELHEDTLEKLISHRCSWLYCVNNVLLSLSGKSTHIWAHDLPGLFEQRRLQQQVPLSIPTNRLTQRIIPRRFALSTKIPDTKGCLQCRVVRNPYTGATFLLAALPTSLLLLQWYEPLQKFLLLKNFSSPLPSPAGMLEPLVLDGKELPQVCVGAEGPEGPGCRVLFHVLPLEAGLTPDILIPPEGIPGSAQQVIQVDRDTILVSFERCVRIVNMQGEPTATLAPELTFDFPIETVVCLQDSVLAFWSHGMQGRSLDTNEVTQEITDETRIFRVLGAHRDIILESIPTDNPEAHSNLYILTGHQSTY
As to the kind of experiment: Selectivity interaction (Ambit KINOMEscan and KiNATiv profiling in Jurkat cells) EUB0000090b MAP4K2. In kind it is cell-based. Particulars: at 1 µM.

Experiment [4] deals with Protein kinase C eta type (Homo sapiens) (UniProt P24723). As to the kind of experiment: Selectivity interaction (Ambit KINOMEscan and KiNATiv profiling in Jurkat cells) EUB0000090b PRKCH. In kind it is cell-based. The following applies: at 1 µM.
Experiment [5] addresses T3, Homeodomain-interacting protein kinase 4 (Homo sapiens) (UniProt Q8NE63).
T3 sequence (whole entry): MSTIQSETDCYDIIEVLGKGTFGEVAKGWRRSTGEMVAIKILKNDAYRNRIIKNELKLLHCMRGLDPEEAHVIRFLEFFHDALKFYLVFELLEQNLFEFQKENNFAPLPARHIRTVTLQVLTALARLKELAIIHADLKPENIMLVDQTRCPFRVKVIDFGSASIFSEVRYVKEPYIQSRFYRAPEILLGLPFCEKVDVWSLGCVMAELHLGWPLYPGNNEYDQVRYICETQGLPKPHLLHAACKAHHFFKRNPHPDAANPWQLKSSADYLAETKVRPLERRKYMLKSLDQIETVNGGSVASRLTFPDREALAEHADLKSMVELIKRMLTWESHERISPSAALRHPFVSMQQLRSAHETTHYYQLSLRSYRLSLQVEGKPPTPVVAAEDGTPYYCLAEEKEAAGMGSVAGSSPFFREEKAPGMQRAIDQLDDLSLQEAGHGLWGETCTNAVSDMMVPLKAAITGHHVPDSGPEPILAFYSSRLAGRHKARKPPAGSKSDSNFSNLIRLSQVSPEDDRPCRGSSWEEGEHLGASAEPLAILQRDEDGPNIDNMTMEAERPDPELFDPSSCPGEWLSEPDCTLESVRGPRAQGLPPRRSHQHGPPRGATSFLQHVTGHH
As to the kind of experiment: Selectivity interaction (KinomeScan (DiscoverX)) EUB0001049a HIPK4. The following applies: at 1 µM.

Experiment [6] addresses Ribosomal protein S6 kinase alpha-1 (Homo sapiens, UniProt Q15418). As to the kind of experiment: Selectivity interaction (Kinase panel (KiNativ target engagement assay in Jurkat cells)) EUB0001635a RPS6KA1. In kind it is cell-based. Particulars: Selectivity number of off-targets 0.0, Selectivity number of targets 233.0, Source Knowledge https://www.sciencedirect.com/science/article/pii/S2451945619300674?via%3Dihub, at 1 µM.

Death-associated protein kinase 2 (Homo sapiens), sequence (Q9UIK4 whole entry, looked up): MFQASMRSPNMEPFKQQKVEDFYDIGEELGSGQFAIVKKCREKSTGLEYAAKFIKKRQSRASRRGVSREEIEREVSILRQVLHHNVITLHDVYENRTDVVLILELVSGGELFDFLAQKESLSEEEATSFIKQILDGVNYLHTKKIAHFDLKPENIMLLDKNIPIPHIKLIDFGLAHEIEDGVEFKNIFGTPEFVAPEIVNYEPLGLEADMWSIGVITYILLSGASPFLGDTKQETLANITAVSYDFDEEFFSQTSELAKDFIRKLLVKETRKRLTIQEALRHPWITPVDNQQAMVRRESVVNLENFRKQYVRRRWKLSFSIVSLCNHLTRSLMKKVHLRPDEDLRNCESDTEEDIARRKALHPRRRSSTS
Protein kinase C eta type (Homo sapiens), sequence (P24723 whole entry): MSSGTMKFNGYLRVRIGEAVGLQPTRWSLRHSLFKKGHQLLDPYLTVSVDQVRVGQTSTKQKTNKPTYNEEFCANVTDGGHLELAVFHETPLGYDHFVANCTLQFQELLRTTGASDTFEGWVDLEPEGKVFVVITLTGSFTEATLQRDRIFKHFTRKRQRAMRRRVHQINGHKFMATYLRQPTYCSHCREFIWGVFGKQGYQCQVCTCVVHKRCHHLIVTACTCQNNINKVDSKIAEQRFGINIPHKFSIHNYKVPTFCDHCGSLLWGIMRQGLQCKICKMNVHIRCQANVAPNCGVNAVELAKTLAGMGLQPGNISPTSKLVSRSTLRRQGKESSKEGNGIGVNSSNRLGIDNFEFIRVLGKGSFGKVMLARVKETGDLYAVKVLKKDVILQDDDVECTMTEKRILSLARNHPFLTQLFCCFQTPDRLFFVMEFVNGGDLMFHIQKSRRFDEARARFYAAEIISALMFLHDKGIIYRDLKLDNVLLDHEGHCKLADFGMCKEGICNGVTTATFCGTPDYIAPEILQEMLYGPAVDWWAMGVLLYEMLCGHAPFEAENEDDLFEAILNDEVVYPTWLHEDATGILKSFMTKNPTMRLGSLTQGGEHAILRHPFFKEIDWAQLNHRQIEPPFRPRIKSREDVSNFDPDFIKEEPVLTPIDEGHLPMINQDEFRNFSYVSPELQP
Ribosomal protein S6 kinase alpha-1, sequence (Q15418 whole entry): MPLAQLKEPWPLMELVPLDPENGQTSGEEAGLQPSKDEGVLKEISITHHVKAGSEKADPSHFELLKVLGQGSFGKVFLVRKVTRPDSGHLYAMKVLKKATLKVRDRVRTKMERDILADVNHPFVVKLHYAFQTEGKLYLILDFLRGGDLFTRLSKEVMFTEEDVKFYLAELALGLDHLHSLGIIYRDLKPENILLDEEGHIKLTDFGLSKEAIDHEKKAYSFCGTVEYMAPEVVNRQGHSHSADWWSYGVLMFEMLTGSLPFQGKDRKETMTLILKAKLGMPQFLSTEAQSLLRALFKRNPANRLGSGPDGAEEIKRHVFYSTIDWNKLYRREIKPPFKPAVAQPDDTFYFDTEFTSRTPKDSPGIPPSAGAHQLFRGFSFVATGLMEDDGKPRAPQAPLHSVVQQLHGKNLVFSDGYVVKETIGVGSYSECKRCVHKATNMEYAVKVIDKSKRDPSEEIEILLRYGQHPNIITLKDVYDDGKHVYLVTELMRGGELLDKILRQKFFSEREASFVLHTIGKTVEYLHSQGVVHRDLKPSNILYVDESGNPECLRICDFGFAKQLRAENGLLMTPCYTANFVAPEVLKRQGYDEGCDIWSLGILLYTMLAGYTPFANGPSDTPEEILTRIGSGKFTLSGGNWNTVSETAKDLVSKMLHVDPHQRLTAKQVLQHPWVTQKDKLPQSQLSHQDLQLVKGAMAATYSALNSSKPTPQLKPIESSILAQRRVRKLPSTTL

For the compound `CNC(=O)Nc1ccc(-c2nc(N3CC4CCC(C3)O4)c3cnn(C4CCC5(CC4)OCCO5)c3n2)cc1`, in experiment [1], the % of control worked out at 94%.
Regarding `C=CC(=O)Nc1cccc(C(=O)Nc2ccc(Nc3cc(-c4[nH]c(SC)nc4C)ccn3)cc2)c1`, the % of control stood at 92% in experiment [2] (at 1 µM) and 78% in experiment [2] (at 5 µM).
As to `CN(C)C/C=C/C(=O)Nc1ccc(C(=O)N2CCCC(Nc3ncc(Cl)c(-c4c[nH]c5ccccc45)n3)C2)cc1` (configuration not stated), the % of control in experiment [3] is 100%; in experiment [4], 91%.
On to `COc1cc(Nc2nc(C)cc(-c3cnn4nc(OC)ccc34)n2)cc(C(F)(F)F)c1`, for which, in experiment [5], the % of control came out at 92%.
As to `C=CC(=O)Nc1ccc(C(=O)Nc2[nH]nc3c2CN(C(=O)N[C@H](CN(C)C)c2ccccc2)C3(C)C)cc1`, in experiment [6], the % of engagement is -0.1%.
